Where a SMILES comes first, the peptide text is derived from it. Bridges are numbered along the chain shown (N, C = ends). [ ]: non-standard residue; d: D form. The star is where a group is joined. d(aIle) = CC[C@H](C)[C@@H](N)C(=O)O; d(aThr) = C[C@@H](O)[C@@H](N)C(=O)O; Hexanoyl(5-Me) = CC(C)CCCC(=O)*; Orn = NCCC[C@H](N)C(=O)O; Dhb = C/C=C(\N)C(=O)O
Key:
Assay type in all cases: cell-based, human
A-549 = assay: SRB colorimetric assay of cell growth and viability, A-549; settings: 48 hours exposure; for GI50: read-out: GI50 A-549; for CC50: read-out: LC50 A-549
SK-MEL-28 = assay: SRB colorimetric assay of cell growth and viability, SK-MEL-28; settings: 48 hours exposure; for CC50: read-out: LC50 MEL-28
HT-29 = assay: SRB colorimetric assay of cell growth and viability, HT-29; settings: 48 hours exposure; for GI50: read-out: GI50 HT-29; for CC50: read-out: LC50 HT-29
LoVo = assay: SRB colorimetric assay of cell growth and viability, LoVo; settings: 48 hours exposure; for CC50: read-out: LC50 LOVO
DU-145 = assay: SRB colorimetric assay of cell growth and viability, DU-145; settings: 48 hours exposure
LNCaP = assay: SRB colorimetric assay of cell growth and viability, LNCaP; settings: 48 hours exposure; for GI50: read-out: GI50 LN-caP; for CC50: read-out: LC50 LN-caP
SK-BR-3 = assay: SRB colorimetric assay of cell growth and viability, SK-BR-3; settings: 48 hours exposure
IGROV-1 = assay: SRB colorimetric assay of cell growth and viability, IGROV-1; settings: 48 hours exposure
IGROV-ET = assay: SRB colorimetric assay of cell growth and viability, IGROV-ET; settings: 48 hours exposure; for CC50: read-out: LC50 IGROV-ET
HeLa = assay: SRB colorimetric assay of cell growth and viability, HeLa; settings: 48 hours exposure; for CC50: read-out: LC50 HELA
HeLa-APL = assay: SRB colorimetric assay of cell growth and viability, HeLa-APL; settings: 48 hours exposure; for CC50: read-out: LC50 HELA-APL
K-562 = assay: SRB colorimetric assay of cell growth and viability, K-562; settings: 48 hours exposure; for CC50: read-out: LC50 K-562
PANC-1 = assay: SRB colorimetric assay of cell growth and viability, PANC-1; settings: 48 hours exposure; for CC50: read-out: LC50 PANC-1

For C/C=C1\NC(=O)[C@H](Cc2ccccc2)NC(=O)[C@@H](C(C)C)NC(=O)[C@@H]([C@@H](C)CC)NC(=O)[C@H](NC(=O)[C@H](NC(=O)[C@H](CCCN)NC(=O)[C@H]2CCCN2C(=O)[C@H](NC(=O)CNC(=O)[C@@H](NC(=O)[C@H](NC(=O)CCCC(C)C)C(C)C)[C@@H](C)O)C(C)C)[C@@H](C)CC)[C@@H](C)OC(=O)[C@H](C(C)C)NC1=O [Compound 42, [Gly^11]-KF] ({Hexanoyl(5-Me)}-[dV]TG[dV][dP][Orn][d(aIle)][d(aThr)][d(aIle)][dV]F[Dhb]V; ester 8-C), the “TGI A-549” value (A-549) was 6.96E−06 Molar, the GI50 (A-549) was 6.96 µM and the CC50 (A-549) was 6.96 µM. The GI50 (SK-MEL-28) was 6.96 µM, the “TGI MEL-28” value (SK-MEL-28) was 6.96E−06 Molar and the CC50 (SK-MEL-28) was 6.96 µM. The “TGI HT-29” value (HT-29) was 6.96E−06 Molar, the GI50 (HT-29) was 6.96 µM and the CC50 (HT-29) was 6.96 µM. The GI50 (LoVo) was 3.87 µM, the “TGI LOVO” value (LoVo) was 6.96E−06 Molar and the CC50 (LoVo) was 6.96 µM. The GI50 (DU-145) was 6.96 µM, the LC50 (concentration causing 50% net cell kill) (DU-145) was 6.96 µM and the “TGI DU-145” value (DU-145) was 6.96E−06 Molar. For the same molecule, the “TGI LN-caP” value (LNCaP) was 6.96E−06 Molar, the GI50 (LNCaP) was 3.03 µM and the CC50 (LNCaP) was 6.96 µM. For the same molecule, the GI50 (SK-BR-3) was 6.96 µM, the LC50 (SK-BR-3) was 6.96 µM and the “TGI SK-BR-3” value (SK-BR-3) was 6.96E−06 Molar. For the same molecule, the GI50 (IGROV-1) was 4.61 µM, the LC50 (concentration causing 50% net cell killing) (IGROV-1) was 6.96 µM and the “TGI IGROV” value (IGROV-1) was 6.96E−06 Molar. For the same molecule, the GI50 (IGROV-ET) was 6.96 µM, the “TGI IGROV-ET” value (IGROV-ET) was 6.96E−06 Molar and the CC50 (IGROV-ET) was 6.96 µM. For the same molecule, the GI50 (HeLa) was 6.96 µM, the “TGI HELA” value (HeLa) was 6.96E−06 Molar and the CC50 (HeLa) was 6.96 µM. The GI50 (HeLa-APL) was 6.96 µM, the “TGI HELA-APL” value (HeLa-APL) was 6.96E−06 Molar and the CC50 (HeLa-APL) was 6.96 µM. The GI50 (K-562) was 1.82 µM, the “TGI K-562” value (K-562) was 4.37E−06 Molar and the CC50 (K-562) was 6.96 µM. The GI50 (PANC-1) was 5.08 µM, the “TGI PANC-1” value (PANC-1) was 6.96E−06 Molar and the CC50 (PANC-1) was 6.96 µM.

With C/C=C1\NC(=O)[C@H](Cc2ccccc2)NC(=O)[C@@H](C(C)C)NC(=O)[C@@H]([C@@H](C)CC)NC(=O)[C@H](NC(=O)[C@H](NC(=O)[C@H](CCCN)NC(=O)[C@H]2CCCN2C(=O)[C@H](NC(=O)[C@H](CCC(N)=O)NC(=O)[C@@H](NC(=O)[C@H](NC(=O)CCCC(C)C)C(C)C)[C@@H](C)O)C(C)C)[C@@H](C)CC)[C@@H](C)OC(=O)[C@H](C(C)C)NC1=O [Compound 48, [Gln^11]-KF] ({Hexanoyl(5-Me)}-[dV]TQ[dV][dP][Orn][d(aIle)][d(aThr)][d(aIle)][dV]F[Dhb]V; ester 8-C) the “TGI A-549” value (A-549) was 6.64E−06 Molar, the GI50 (A-549) was 5.82 µM and the CC50 (A-549) was 6.64 µM. The GI50 (SK-MEL-28) was 6.64 µM, the “TGI MEL-28” value (SK-MEL-28) was 6.64E−06 Molar and the CC50 (SK-MEL-28) was 6.64 µM. The “TGI HT-29” value (HT-29) was 6.64E−06 Molar, the GI50 (HT-29) was 6.64 µM and the CC50 (HT-29) was 6.64 µM. The GI50 (LoVo) was 5.17 µM, the “TGI LOVO” value (LoVo) was 6.64E−06 Molar and the CC50 (LoVo) was 6.64 µM. The GI50 (DU-145) was 6.64 µM, the LC50 (concentration causing 50% net cell kill) (DU-145) was 6.64 µM and the “TGI DU-145” value (DU-145) was 6.64E−06 Molar. For the same molecule, the “TGI LN-caP” value (LNCaP) was 6.64E−06 Molar, the GI50 (LNCaP) was 3.1 µM and the CC50 (LNCaP) was 6.64 µM. For the same molecule, the GI50 (SK-BR-3) was 6.64 µM, the LC50 (SK-BR-3) was 6.64 µM and the “TGI SK-BR-3” value (SK-BR-3) was 6.64E−06 Molar. The GI50 (IGROV-1) was 6.64 µM, the LC50 (concentration causing 50% net cell killing) (IGROV-1) was 6.64 µM and the “TGI IGROV” value (IGROV-1) was 6.64E−06 Molar. The GI50 (IGROV-ET) was 6.64 µM, the “TGI IGROV-ET” value (IGROV-ET) was 6.64E−06 Molar and the CC50 (IGROV-ET) was 6.64 µM. The GI50 (HeLa) was 6.64 µM, the “TGI HELA” value (HeLa) was 6.64E−06 Molar and the CC50 (HeLa) was 6.64 µM. For the same molecule, the GI50 (HeLa-APL) was 6.64 µM, the “TGI HELA-APL” value (HeLa-APL) was 6.64E−06 Molar and the CC50 (HeLa-APL) was 6.64 µM. For the same molecule, the GI50 (K-562) was 6.64 µM, the “TGI K-562” value (K-562) was 6.64E−06 Molar and the CC50 (K-562) was 6.64 µM. The GI50 (PANC-1) was 5.1 µM, the “TGI PANC-1” value (PANC-1) was 6.64E−06 Molar and the CC50 (PANC-1) was 6.64 µM.

— US20070117743A1, “New antitumoral compounds” (priority 2003, published 2007)
